Results on 10 compounds are retold here after patent US12060349B2, “Glucosylceramide synthase inhibitors” (Genzyme Corporation, priority 2012, dated 2024).

Assay [1] concerns jck mice. The assay can be described thus: glucosylceramide synthase inhibition in a model of polycystic kidney disease (jck mice). The format is in vivo, mouse. The settings on record: FIG. 3. The text has this:
Mice homozygous for the Nek8jck mutation develop polycystic kidney disease (“jck mice”). […] Disease is progressive but not evident by kidney palpation until at least 4 to 5 weeks of age. Homozygotes generally remain active until shortly before death and usually die between 20 and 25 weeks of age. […] No histologic abnormalities are found in the liver, spleen, or pancreas. (Atala et al., 1993).
To evaluate the effects of a GCS inhibitor on polycystic kidney disease, Compound 156, (S)-quinuclidin-3-yl (2-(4′-(2-methoxyethoxy)-[1,1′-biphenyl]-4-yl)propan-2-yl)carbamate was administered in the feed of jck mice at doses of 15, 30 and 50 mg/kg. A second compound, quinuclidin-3-yl (2-(4′-fluoro-[1,1′-biphenyl]-3-yl)propan-2-yl)carbamate (hereinafter “GZ 161”) was administered in the feed of jck mice at a dose of 60 mg/kg.
Administration of the compound was started between 3 and 4 weeks of age, and continued until the mice were sacrificed at 9 weeks of age. The effect of the compounds on the disease phenotype was evaluated by measurement of body weight, blood urea nitrogen (“BUN”), and serum GL1. Additional effects on kidney/body weight (K/BW), cyst volume, BUN, kidney GL1, and serum GL1 were also measured at the end of life time point of the study.

Assay [2] has as its target T1, glucosylceramide synthase (Homo sapiens, UniProt Q16739).
T1 construct: Microsomes were isolated from A375 human melanoma cells; endogenous in cells; host or cells: A375 human melanoma cells (microsomal fraction, 100,000 g pellet)
T1 sequence (Q16739 1-394): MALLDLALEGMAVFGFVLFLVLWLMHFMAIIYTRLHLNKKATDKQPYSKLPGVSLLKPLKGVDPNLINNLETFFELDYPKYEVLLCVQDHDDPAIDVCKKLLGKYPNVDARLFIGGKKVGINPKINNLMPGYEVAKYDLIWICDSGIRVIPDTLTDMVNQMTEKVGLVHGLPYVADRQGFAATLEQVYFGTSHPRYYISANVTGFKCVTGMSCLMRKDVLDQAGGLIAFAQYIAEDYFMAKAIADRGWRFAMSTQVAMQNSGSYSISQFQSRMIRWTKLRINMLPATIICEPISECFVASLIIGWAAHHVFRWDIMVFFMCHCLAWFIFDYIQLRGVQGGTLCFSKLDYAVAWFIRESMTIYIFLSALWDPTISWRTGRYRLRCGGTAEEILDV
The assay can be described thus: microsomal assay measuring conversion of ceramide to glucosylceramide by HPLC (GCS IC50). The format is biochemical. The settings on record: concentration causing 50% inhibition of glucosylceramide synthase activity. In outline: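 Microsomal preparation assayed for glucosylceramide synthase by direct HPLC measurement of ceramide conversion to glucosylceramide. GCS IC50 is the compound concentration giving 50% inhibition of enzyme activity.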

In assay [3] the test system is GM3 expression on the cell surface, B16 mouse melanoma cells. The assay can be described thus: cell based phenotypic assay, cell surface GM3 by antibody mediated immunofluorescence, B16 (GM3 B16 IC50). The note with it: 50% inhibition of GM3 expression on the cell surface. The method, boiled down: (§1)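 Two melanoma lines, mouse B16 and human C32, were treated and surface GM3 quantified by antibody immunofluorescence for IC50. A parallel viability readout gives the concentration killing 50% of cells, with values over 10 indicating no cell death.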

Assay [4] concerns GM3 expression on the cell surface, C32 human melanoma cells. The assay can be described thus: cell based phenotypic assay, cell surface GM3 by antibody mediated immunofluorescence, C32 (GM3 C32 IC50). The note with it: 50% inhibition of GM3 expression on the cell surface. The method, boiled down:
as §1

Assay [5] concerns B16 mouse melanoma cells. Nature of the assay: cell viability in the B16 cell-based assay (Viability, B16 IC50). The method, boiled down: (§2)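 Both lines undergo the phenotypic GM3 assay, and viability is recorded from that same cell-based run.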
Assay [6] relates to C32 human melanoma cells. Nature of the assay: cell viability in the C32 cell-based assay (Viability, C32 IC50). The settings on record: concentration causing 50% cell death, values greater than 10 represent a lack of cell death. The method, boiled down: as §2
[7] abbreviates: Mus musculus, read-out: GM3 B16 IC50, B16 mouse melanoma cells.
Where [8] appears, read: Homo sapiens, read-out: GM3 C32 IC50, C32 human melanoma cells.
Setting [9] is: Mus musculus, B16, read-out: Viability, B16 IC50.
Setting [10] is: Homo sapiens, C32, read-out: Viability, C32 IC50, C32 cells.
Setting [11] is: all three dose groups (15, 30 and 50 mg/kg in feed), vs vehicle control group.
Setting [12] is: in feed at 15, 30 and 50 mg/kg, associated with GL1 inhibition.
[13] abbreviates: Mus musculus, B16 mouse melanoma cells, read-out: GM3 B16 IC50.
Setting [14] is: Homo sapiens, C32 human melanoma cells, read-out: GM3 C32 IC50.
[15] abbreviates: Mus musculus, B16, B16 cells, concentration causing 50% cell death, values greater than 10 represent a lack of cell death, read-out: Viability, B16 IC50.
Setting [16] is: Homo sapiens, C32, C32 cells, read-out: Viability, C32 IC50.

As a reminder, the IC50 is the concentration at which inhibition is half-maximal.

Where two headings read alike, the source gives them in different places.

For `CC(C)(NC(=O)OC1CN2CCC1CC2)c1cccc(-c2ccc(F)cc2)c1` (stereo not drawn) [GZ 161, quinuclidin-3-yl (2-(4′-fluoro-[1,1′-biphenyl]-3-yl)propan-2-yl)carbamate], the “kidney to body weight (K/BW)” value in assay [1] (60 mg/kg in feed, vs vehicle control group) was “statistically different”.
On to `COCCOc1ccc(-c2ccc(C(C)(C)NC(=O)O[C@@H]3CN4CCC3CC4)cc2)cc1` [Example 156, (S)-Quinuclidin-3-yl (2-(4′-(2-methoxyethoxy)-[1,1′-biphenyl]-4-yl)propan-2-yl)carbamate], for which the IC50 was found to be 4.14 nM in assay [2]; 43.7 nM in assay [3] (setting [7]); 1.31 nM in assay [4] (setting [8]); 4740 nM in assay [5] (setting [9]); 763 nM in assay [6] (setting [10]). For the same compound, the body weight result in assay [1] (30 mg/kg in feed, vs vehicle control group) is “statistically different”; in assay [1] (50 mg/kg in feed, vs vehicle control group) it was “statistically different”. Moreover, the “BUN (blood urea nitrogen)” value in assay [1] (setting [11]) is “statistically different”. Moreover, in assay [1] (setting [11]), the cyst volume entry was “statistically different”. In addition, the “kidney to body weight (K/BW)” value in assay [1] (setting [11]) is reported as “statistically different”. Further, the cyst growth result in assay [1] (setting [12]) was “reduced”. In addition, the kidney function entry in assay [1] (setting [12]) is “preservation”. The GL1 levels entry in assay [1] (in feed at 15, 30 and 50 mg/kg, from 3-4 weeks to 9 weeks of age, vs vehicle control) is “dose-dependent inhibition”.
For `COCCOCc1ccc(-c2ccc(C(C)(C)NC(=O)OC3CCN4CCC3CC4)cc2)cc1` (stereo not drawn) [Example 200, 1-Azabicyclo[3.2.2]nonan-4-yl (2-(4′-((2-methoxyethoxy)methyl)-[1,1′-biphenyl]-4-yl)propan-2-yl)carbamate], the IC50 in assay [2] is 24 nM; in assay [3] (setting [13]), 220 nM; in assay [4] (setting [14]) it was 6.16 nM; in assay [5] (setting [15]), no less than 10000 nM; in assay [6] (setting [16]) it was 1000 nM.
As to `CN(C)C(=O)c1ccc(-c2ccc(C(C)(C)NC(=O)OC3CCN4CCC3CC4)cc2)cc1` (stereo not drawn) [Example 259, 1-Azabicyclo[3.2.2]nonan-4-yl 2-(4′-(dimethylcarbamoyl)biphenyl-4-yl)propan-2-ylcarbamate], the IC50 in assay [2] was 134 nM; in assay [3] (setting [13]) it was 179 nM; in assay [4] (setting [14]), 20.5 nM; in assay [5] (setting [15]) it was no less than 10000 nM; in assay [6] (setting [16]) it was no less than 10000 nM.
Turning to `CN(C)C(=O)c1cccc(Oc2cccc(C(C)(C)NC(=O)OC3CCN4CCC3CC4)c2)c1` (stereo not drawn) [Example 288, 1-Aza-bicyclo[3.2.2]nonan-4-yl 2-(3-(3-(dimethylcarbamoyl)phenoxy)phenyl)propan-2-ylcarbamate], the IC50 in assay [2] was 203 nM; in assay [3] (setting [13]), 1180 nM; in assay [4] (setting [14]) it was 50.2 nM; in assay [5] (setting [15]), no less than 10000 nM; in assay [6] (setting [16]) it was no less than 10000 nM.
In the case of “1-Azabicyclo[3.2.2]nonan-3-yl 4-(4′-fluoro-[1,1′-biphenyl]-3-yl)piperazine-1-carboxylate [Example 25]”, the IC50 in assay [2] was 3480 nM; in assay [3] (B16 mouse melanoma cells, read-out: GM3 B16 IC50), 4860 nM; in assay [4] (C32 human melanoma cells, read-out: GM3 C32 IC50), 9380 nM; in assay [5] (B16 cells, concentration causing 50% cell death, values greater than 10 represent a lack of cell death, read-out: Viability, B16 IC50), 5390 nM; in assay [6] (C32 cells, read-out: Viability, C32 IC50) it was 5410 nM.
In the case of `COCCCOc1ccc(-c2cccc(C(C)(C)NC(=O)OC3CCN4CCC3CC4)c2)nn1` (stereo not drawn) [Example 313, 1-Azabicyclo[3.2.2]nonan-4-yl (2-(3-(6-(3-methoxypropoxy)pyridazin-3-yl)phenyl)propan-2-yl)carbamate], the IC50 in assay [2] was 88.9 nM; in assay [3] (setting [13]) it was 470 nM; in assay [4] (setting [14]), 10.7 nM; in assay [5] (setting [15]), no less than 10000 nM; in assay [6] (setting [16]), no less than 10000 nM.
Regarding `COC1(C(=O)NC2(C)CCN3CCC2CC3)CCN(c2ncc(F)c(-c3ccc(OCCF)cc3)n2)CC1` (stereo not drawn) [Example 102, 1-(5-Fluoro-4-(4-(2-fluoroethoxy)phenyl)pyrimidin-2-yl)-4-methoxy-N-(4-methyl-1-azabicyclo[3.2.2]nonan-4-yl)piperidine-4-carboxamide], the IC50 in assay [2] was found to be 1.03 nM; in assay [3] (setting [13]), 92.9 nM; in assay [4] (setting [14]), 0.258 nM; in assay [5] (setting [15]) it was 2850 nM; in assay [6] (setting [16]) it was 100 nM.
Turning to `CC(C)(NC(=O)OC1CN2CCC1CC2)c1ccc(-c2ccc(S(=O)(=O)CC3CC3)cc2)cc1` (stereo not drawn) [Example 238, Quinuclidin-3-yl (2-(4′-((cyclopropylmethyl)sulfonyl)-[1,1′-biphenyl]-4-yl)propan-2-yl)carbamate], the IC50 in assay [2] was 15.4 nM; in assay [3] (setting [7]), 50.1 nM; in assay [4] (setting [8]) it was 4.45 nM; in assay [5] (setting [9]), no less than 10000 nM; in assay [6] (setting [10]), 1000 nM.
Turning to `CC1(NC(=O)C2CCN(c3cccc(-c4ncccn4)c3)CC2)CCN2CCC1CC2` (stereo not drawn) [Example 39, N-(4-Methyl-1-azabicyclo[3.2.2]nonan-4-yl)-1-(3-(pyrimidin-2-yl)phenyl)piperidine-4-carboxamide], the IC50 in assay [2] is 1800 nM; in assay [3] (setting [13]), 7240 nM; in assay [4] (setting [14]), 126 nM; in assay [5] (setting [15]) it was no less than 10000 nM; in assay [6] (setting [16]), 3160 nM.
